Measurements taken from paper PMC6804997 (PLoS ONE, 2019).

What was measured:
[1] = test system: HK-2 cells; experiment: Annexin V/PI flow cytometry of myoglobin-stimulated HK-2 cells; assay type: cell-based, Human; settings: F7 […], 5 nM and 10 nM; Mb 200 μM, 24 hrs
Experimental: Human renal proximal tubule cell line (HK-2) cells were purchased from Shanghai Institute of Biochemistry and Cell Biology, Shanghai, China and maintained in DMEM/F12 (Hyclone, Beijing, China) supplemented with 10% fetal bovine serum (FBS, Hyclone, Australia) and 1% penicillin and streptomycin at 37°C under humidified atmosphere of 5% carbon dioxide. Then cells were seeded on six-well plates (Shanghai Sunub Bio-Tech Development Inc., Shanghai, China) at a density of 200,000 cells per well, divided into four groups at exponential phase: the control group (cells incubated with DMEM/F12+10%FBS), the model group (cells incubated with 200 μM ferrous myoglobin (M0630, Sigma-Aldrich, St. […]
Cell apoptosis was evaluated by flow cytometry using an Annexin V-FITC apoptosis analysis kit (AO-2001-02P-H, Tianjin Sungene Biotech Co., Ltd, Tianjin, China). After the four group of cells were cultured under the condition as described above for 24 hours, they were digested by trypsin, collected, and washed three times with PBS diluted 1×binding buffer (1ml per tube). […] After being supplemented to 500 μL using cold PBS followed by gentle vortex, samples were ready to be testes. Apoptosis signals were detected using a CytoFLEX by Beckman & Coulter.

[2] = test system: rhabdomyolysis-induced AKI in glycerol-injected mice; experiment: Glycerol-induced rhabdomyolysis AKI mouse model with F7 pretreatment; assay type: in vivo, C57BL/6 mice
Experimental: After one week of adoption to the housing conditions, the mice were randomly divided into three groups (n = 8): control, glycerol, and glycerol+HDAC6 inhibitor (F7). For the latter two groups, a single intramuscular injection of 50% glycerol dissolved in 0.9% normal saline (10 μl/g) was divided between bilateral back limbs to induce rhabdomyolysis-induced AKI model. The mice in control group received the same dose of saline injection at the place of glycerol. Before glycerol injection, mice in pretreatment group were orally administrated with F7 (dissolved in DEG and diluted with 0.9% saline) at a dose of 40mg/kg/d (200 μl solution for 28g) for 3 days. For control and glycerol groups, mice were treated with the same dose of saline.
All the mice were euthanized via pentobarbital sodium injection (50 mg/kg, i.p.). Terminal blood samples were collected and serum samples were stored at -80°C. Kidney tissues were divided and respectively removed into 10% phosphate buffered formalin for histological staining, and into liquid nitrogen follows by storage at -80°C for further quantitative analysis and immunofluorescence staining.
The serum level of creatinine kinase (CK), blood urea (UREA) and serum creatinine (sCr) were tested using high performance liquid chromatography (HPLC) by Institute of Drug Clinical Trial and the GCP center of West China Hospital of Sichuan University.
Paraffin-embedded kidney tissue samples were cut into 4-um sections and stained with haematoxylin and erosin (H&E) and periodic acid-Schiff (PAS) staining. These sections were viewed using light microscopy at magnifications of ⊆200 and ⊆400 respectively, and semiquantitative estimation of renal tubular damage was performed on a scale from 0 to 4 to grade the percentage of injured/damaged renal tubules: 0 for 0%, 0.5% for <10%, 1 for 10–25%, 2 for 26–50%, 3 for 51–75% and 4 for 76–100%[22]. At least 10 areas were randomly selected in the cortex per slide.
Kidney tissue samples were mounted in O.C.T. compound medium (Tissue-Tek) for cryosectioning (4 μm). Sections were immediately fixed in 10% buffered formalin, washed, dehydrated and stored at -20°C. Before immunofluorescence staining, the tissue sections were rehydrated and blocked with 10% horse medium (diluted with PBS solution) for 1 hour at room temperature and incubated at 4°C overnight with indicated primary antibodies. Then sections were exposed to second antibodies labeled with Cy5 red or FITC green (Jackson ImmunoResearch Inc., West Grove, PA, United States). The nuclei were counterstained with DAPI (1:500, Life Technologies Corporation, OR, United States). The images were captured with AxioCam HRc digital camera (Carl Zeiss).
Kidney tissue or cultured cell samples were sufficiently lysed in the mixture of RIPA buffer (50 mM Tris (pH7.4), 150 mM NaCl, 1% TritonX-100, 1% sodium deoxycholate, 0.1% SDS) containing 4% cocktail proteinase inhibitor (Roche, Switzerland) on ice. After centrifuged at 13,000 rpm for 15 min at 4°C, supernate of the homogenate were collected for protein quantification. Protein equivalent to 50 ug were loaded into 10–12% SDS-PAGE gels for electrophoretic separation, and then transferred to polyvinylidene difluoride (PVDF) membranes (0.2 μm, Bio-Rad Laboratories, Inc.). After protein blotting, membranes were blocks using 5% non-fat dried milk for 1h at room temperature, then probed with primary antibodies at 4°C overnight, and incubated with secondary antibodies for 1h at room temperature. […]

[3] = glycerol+F7 vs glycerol group, F7 40 mg/kg/d oral for 3 days
[4] = western blot, F7 40 mg/kg/d for 3 days

Cc1nc(N(C)c2ccc(Oc3ccc(C(=O)NO)cn3)cc2)c2ccccc2n1 [F7, N-hydroxy-6-(4-(methyl(2-methylquinazolin-4-yl)amino)phenoxy)nicotinamide]
growth of HK-2 cells under stimulation of myoglobin [1]: improved growth of HK-2 cells under stimulation of myoglobin (Mb) in a dose-dependent manner | IL-β and TNF-α in serum and kidney lysates ([2]; ELISA, F7 40 mg/kg/d for 3 days): decreased | NGAL expression in tubules (immunofluorescence staining) ([2]; F7 40 mg/kg/d for 3 days): largely diminished | pathological injuries (tubular damage, H&E and PAS staining) ([2]; F7 40 mg/kg/d oral for 3 days pretreatment): effectively alleviated | Serum creatine kinase (CK) ([2]; glycerol+F7 group vs control, 24 hours after glycerol injection, F7 40 mg/kg/d oral for 3 days): markedly elevated | serum creatinine (sCr) [2, 3]: remarkably decreased | serum urea (UREA) [2, 3]: remarkably decreased | NGAL mRNA expression and protein expression ([2]; real-time PCR and immunoblot, F7 40 mg/kg/d for 3 days): markedly reduced | mRNA level of IL-6 and TNF-α in kidney ([2]; real-time PCR, F7 40 mg/kg/d for 3 days): significantly decreased | expression of HDAC6 in the damaged kidney ([2]; western blot and immunofluorescence, F7 40 mg/kg/d for 3 days): significantly inhibited | IκBα phosphorylation in kidney [2, 4]: decreased | NF-κB p65 phosphorylation in kidney [2, 4]: effectively down-regulated | acetylation of histone H3 and α-tubulin in kidney [2, 4]: enhanced | p38 phosphorylation in kidney [2, 4]: effectively inhibited | proinflammatory cytokines IL-6 and IL-β protein levels in kidney [2, 4]: remarkably down-regulated | total ERK1/2 expression in kidney [2, 4]: effectively inhibited | ERK1/2 phosphorylation in kidney ([2]; western blot, F7 treatment group): no significant ERK1/2 phosphorylation reduction
